Laboratory results as given in publication PMC5580238 (ACS chemical neuroscience, 2016).
“Also recorded” adds a separate entry of the source. Where two headings read alike, the source gives them in different places.

How the values were obtained:
[1] = target: PIB site in AD brain tissue homogenates (thioflavin-T binding site on β-amyloid plaques) (Homo sapiens, UniProt P05067)
[2] = target: T807 site in AD brain tissue homogenates (NFTs) (Homo sapiens, UniProt P10636); type: binding; conditions: for Inhibition of specific binding of [3H]T807 to AD brain tissue homogenate: compound at 1 μM concentration
T807 site in AD brain tissue homogenates (NFTs), sequence (P10636 623-708 limits assumed): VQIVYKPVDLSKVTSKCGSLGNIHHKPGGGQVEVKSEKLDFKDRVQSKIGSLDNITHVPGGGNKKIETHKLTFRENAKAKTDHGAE

AD brain homogenate = AD brain homogenate (Homo sapiens, UniProt P10636); test: Titration; type: binding; conditions: titration with [18F]THK-523 plus THK-523; curve fit
AD brain homogenate, sequence (P10636 2-758): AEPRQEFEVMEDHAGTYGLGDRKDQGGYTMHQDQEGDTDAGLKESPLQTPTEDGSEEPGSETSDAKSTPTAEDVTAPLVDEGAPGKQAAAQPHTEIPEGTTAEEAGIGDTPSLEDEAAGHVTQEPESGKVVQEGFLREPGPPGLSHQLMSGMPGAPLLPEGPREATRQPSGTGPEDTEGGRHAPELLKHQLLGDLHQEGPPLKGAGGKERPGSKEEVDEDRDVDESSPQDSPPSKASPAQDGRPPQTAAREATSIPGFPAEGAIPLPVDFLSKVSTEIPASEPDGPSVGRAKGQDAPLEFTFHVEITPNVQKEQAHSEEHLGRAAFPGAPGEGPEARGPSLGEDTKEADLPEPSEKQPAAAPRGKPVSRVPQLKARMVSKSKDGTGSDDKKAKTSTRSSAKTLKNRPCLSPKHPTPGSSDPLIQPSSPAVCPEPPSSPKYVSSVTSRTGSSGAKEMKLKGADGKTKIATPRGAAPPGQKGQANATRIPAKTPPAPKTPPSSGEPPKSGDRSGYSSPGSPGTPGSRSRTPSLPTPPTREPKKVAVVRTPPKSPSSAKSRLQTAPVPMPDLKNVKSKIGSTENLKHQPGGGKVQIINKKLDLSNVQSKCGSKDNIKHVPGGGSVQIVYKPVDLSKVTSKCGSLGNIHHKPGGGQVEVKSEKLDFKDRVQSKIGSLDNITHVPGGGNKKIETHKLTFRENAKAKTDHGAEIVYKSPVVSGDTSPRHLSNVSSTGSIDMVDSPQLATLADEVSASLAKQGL

[3] = target: THK-523 site in AD brain tissue homogenates (NFTs) (Homo sapiens, UniProt P10636); type: binding; conditions: for Inhibition of specific binding of [3H]THK-523 to AD brain tissue homogenate: compound at 1 μM concentration; for Ki: Ki with [3H]THK-523 as reference radioligand
THK-523 site in AD brain tissue homogenates (NFTs), sequence (P10636 623-708 limits assumed): as the sequence (P10636 623-708 limits assumed) above

[4] = Ligand solubility in binding assay media; type: physicochemical; conditions: in water or PBS

PIB site in AD brain tissue homogenates (thioflavin-T binding site on β-amyloid plaques), sequence (P05067 672-711 limits assumed): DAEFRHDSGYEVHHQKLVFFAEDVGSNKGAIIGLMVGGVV

Structure (SMILES) | Ki [1] [nM] | Ki [2] [nM] | also measured
Nc1ccc(-c2ccc3cc(OCCOCCN4CCOC4=O)ccc3n2)cc1 [12c, 3-(2-(2-((2-(4-Aminophenyl)quinolin-6-yl)oxy)ethoxy)ethyl)-oxazolidin-2-one] | > 1000 | > 1000 | 
Nc1ccc(-c2ccc3cc(OCCOCCOCCOCCOCCOCCF)ccc3n2)cc1 [10f, 4-(6-((17-Fluoro-3,6,9,12,15-pentaoxaheptadecyl)oxy)quinolin-2-yl)aniline] | > 500 |  | 
Nc1ccc(-c2ccc3cc(OCCOCCOCCF)ccc3n2)cc1 [10c, 4-(6-(2-(2-(2-Fluoroethoxy)ethoxy)ethoxy)quinolin-2-yl)aniline] | > 1000 | > 1000 | 
Nc1ccc(-c2ccc3cc(OCCF)ccc3n2)cc1 [[^18F]THK-523] |  |  | Bmax (concentration of maximal binding sites) (AD brain homogenate): 1639 ± 235 dpm; NS (coefficient of nonspecific binding) (AD brain homogenate): 169 ± 3
Nc1ccc(-c2ccc3cc(OCCOCCF)ccc3n2)cc1 [10b, 4-(6-(2-(2-Fluoroethoxy)ethoxy)quinolin-2-yl)aniline] | > 1000 | > 1000 | 
Fc1ccc(-c2ccc3c(c2)[nH]c2ccncc23)cn1 [T807] |  |  | Inhibition of specific binding of [3H]T807 to AD brain tissue homogenate [2]: full inhibition; Inhibition of specific binding of [3H]THK-523 to AD brain tissue homogenate ([3]; 1 µM): failed to inhibit; also recorded: very low inhibition
Nc1ccc(-c2ccc3cc(OCCOCCNCCO)ccc3n2)cc1 [12f, 2-((2-(2-((2-(4-Aminophenyl)quinolin-6-yl)oxy)ethoxy)ethyl)-amino)ethan-1-ol] | > 1000 | > 1000 | 
Nc1ccc(-c2ccc3cc(OCCOCCOCCOCCF)ccc3n2)cc1 [10d, 4-(6-(2-(2-(2-(2-Fluoroethoxy)ethoxy)ethoxy)ethoxy)quinolin-2-yl)aniline] | > 1000 | > 1000 | 
Nc1ccc(-c2ccc3cc(OCCF)ccc3n2)cc1 [THK-523, 4-(6-(2-Fluoroethoxy)quinolin-2-yl)aniline] | > 1000 | 425 ± 383 | Solubility [4]: insoluble; Inhibition of specific binding of [3H]T807 to AD brain tissue homogenate ([2]; 1 µM): failed to inhibit; Inhibition of specific binding of [3H]T807 to AD brain tissue homogenate ([2]; listed as THK-523 (10a), 1 µM): very low inhibition; Ki ([3]; 20% ethanol wash): 28 ± 6 nM; Ki ([3]; Tris-buffer (pH 7.2) wash): 52 ± 14 nM; Ki ([3]; neat ethanol wash): 45 ± 12 nM; Inhibition of specific binding of [3H]THK-523 to AD brain tissue homogenate [3]: full inhibition
Nc1ccc(-c2ccc3cc(OCCOCCOCCOCCOCCF)ccc3n2)cc1 [10e, 4-(6-((14-Fluoro-3,6,9,12-tetraoxatetradecyl)oxy)quinolin-2-yl)-aniline] | 43 ± 39 |  | 
